Reference: ChEMBL document CHEMBL4020763, “N-(1H-Pyrazol-3-yl)quinazolin-4-amines as a novel class of casein kinase 1δ/ε inhibitors: Synthesis, biological evaluation and molecular modeling studies” (Bioorg Med Chem Lett, 2017)

Experiments:
DU-145 = experiment: Growth inhibition of human DU145 cells at 100 uM by MTT assay relative to control; format: functional; settings: read-out: GI
MDA-MB-231 [1] = experiment: Growth inhibition of human MDA-MB-231 cells at 100 uM by MTT assay relative to control; format: functional; settings: read-out: GI
BT-20 [2] = experiment: Cytotoxicity against human BT20 cells by MTT assay; format: functional, cell-based
MDA-MB-468 [3] = experiment: Growth inhibition of human MDA-MB-468 cells at 100 uM by MTT assay relative to control; format: functional; settings: read-out: GI
ZR-75-1 [4] = experiment: Cytotoxicity against human ZR-75-1 cells by MTT assay; format: functional, cell-based
PANC-1 [5] = experiment: Cytotoxicity against human PANC1 cells by MTT assay; format: functional, cell-based
ZR-75-30 [6] = experiment: Cytotoxicity against human ZR-7530 cells by MTT assay; format: functional, cell-based
[7] = biological target: Dual specificity protein kinase CLK1 (Mus musculus) (UniProt P22518); experiment: Inhibition of recombinant mouse GST-fused CLK1 expressed in Escherichia coli at 10 uM using RS peptide as substrate after 30 mins in presence of ATP by scintillation counting method relative to control
[8] = Inhibition of M-phase starfish oocytes CDK1/cyclin B using histone H1 as substrate after 30 mins in presence of ATP by scintillation counting method; parameters: species or system Asteroidea
MDA-MB-231 [9] = experiment: Cytotoxicity against human MDA-MB-231 cells by MTT assay; format: functional, cell-based
[10] = Inhibition of porcine brain CK1-delta/epsilon using CSK peptide as substrate after 30 mins in presence of ATP by scintillation counting method; parameters: species or system Sus scrofa
[11] = biological target: Glycogen synthase kinase-3 (Sus scrofa) (UniProt B2LUN4+I6LNT8); experiment: Inhibition of porcine brain GSK-3 alpha/beta at 10 uM using YRRAAVPPSPSLSRHSSPHQpSEDEEE as substrate after 30 mins in presence of ATP by scintillation counting method relative to control
MIA PaCa-2 [12] = experiment: Cytotoxicity against human MIAPaCa2 cells by MTT assay; format: functional, cell-based
[13] = biological target: Cyclin-dependent kinase 5/CDK5 activator 1 (Homo sapiens) (UniProt Q00535+Q15078); experiment: Inhibition of recombinant human CDK5/p25 expressed in Escherichia coli at 10 uM using histone H1 as substrate after 30 mins in presence of ATP by scintillation counting method relative to control
HEK293 = experiment: Cytotoxicity against HEK293 cells by MTT assay; format: cell-based; settings: Homo sapiens
[14] = biological target: CDK9/cyclin T1 (Homo sapiens) (UniProt O60563+P50750); experiment: Inhibition of recombinant human CDK9/cyclin T expressed in insect cells at 10 uM using YSPTSPSYSPTSPSYSPTSPSKKKK as substrate after 30 mins in presence of ATP by scintillation counting method relative to control
HCT-15 [15] = experiment: Cytotoxicity against human HCT15 cells by MTT assay; format: functional, cell-based
ZR-75-1 [16] = experiment: Growth inhibition of human ZR-75-1 cells at 100 uM by MTT assay relative to control; format: functional; settings: read-out: GI
[17] = biological target: Glycogen synthase kinase-3 (Sus scrofa, UniProt B2LUN4+I6LNT8); experiment: Inhibition of porcine brain GSK-3 alpha/beta using YRRAAVPPSPSLSRHSSPHQpSEDEEE as substrate after 30 mins in presence of ATP by scintillation counting method
MDA-MB-468 [18] = experiment: Cytotoxicity against human MDA-MB-468 cells by MTT assay; format: functional, cell-based
MCF7 [19] = experiment: Cytotoxicity against human MCF7 cells by MTT assay; format: functional, cell-based
ZR-75-30 [20] = experiment: Growth inhibition of human ZR-7530 cells at 100 uM by MTT assay relative to control; format: functional; settings: read-out: GI
MCF7 [21] = experiment: Growth inhibition of human MCF7 cells at 100 uM by MTT assay relative to control; format: functional; settings: read-out: GI
MIA PaCa-2 [22] = experiment: Growth inhibition of human MIAPaCa2 cells at 100 uM by MTT assay relative to control; format: functional; settings: read-out: GI
A549 [23] = experiment: Cytotoxicity against human A549 cells by MTT assay; format: functional, cell-based
BT-20 [24] = experiment: Growth inhibition of human BT20 cells at 100 uM by MTT assay relative to control; format: functional; settings: read-out: GI
A549 [25] = experiment: Growth inhibition of human A549 cells at 100 uM by MTT assay relative to control; format: functional; settings: read-out: GI
Asteroidea = experiment: Inhibition of M-phase starfish oocytes CDK1/cyclin B at 10 uM using histone H1 as substrate after 30 mins in presence of ATP by scintillation counting method relative to control
Sus scrofa = organism: Sus scrofa; experiment: Inhibition of porcine brain CK1-delta/epsilon at 10 uM using CSK peptide as substrate after 30 mins in presence of ATP by scintillation counting method relative to control
[26] = biological target: CDK2/Cyclin A2 (Homo sapiens) (UniProt P24941+P20248); experiment: Inhibition of recombinant human CDK2/cyclin A at 10 uM using histone H1 as substrate after 30 mins in presence of ATP by scintillation counting method relative to control; format: protein-complex assay
[27] = biological target: Dual specificity protein kinase CLK1 (Mus musculus, UniProt P22518); experiment: Inhibition of recombinant mouse GST-fused CLK1 expressed in Escherichia coli using RS peptide as substrate after 30 mins in presence of ATP by scintillation counting method
PANC-1 [28] = experiment: Growth inhibition of human PANC1 cells at 100 uM by MTT assay relative to control; format: functional; settings: read-out: GI
CDK2/Cyclin A2 = CDK2/Cyclin A2 (Homo sapiens, UniProt P24941); experiment: Inhibition of recombinant human CDK2/cyclin A using histone H1 as substrate after 30 mins in presence of ATP by scintillation counting method; format: protein-complex assay
HCT-15 [29] = experiment: Growth inhibition of human HCT15 cells at 100 uM by MTT assay relative to control; format: functional; settings: read-out: GI
[30] = biological target: Dual specificity tyrosine-phosphorylation-regulated kinase 1A (Homo sapiens) (UniProt Q13627); experiment: Inhibition of recombinant full length human GST-fused DYRK1A expressed in Escherichia coli at 10 uM using RS peptide as substrate after 30 mins in presence of ATP by scintillation counting method relative to control
[31] = Growth inhibition of HEK293 cells at 100 uM by MTT assay relative to control; format: cell-based; settings: human, read-out: GI

Sequence of Cyclin-dependent kinase 5/CDK5 activator 1 (Homo sapiens) (Q00535 whole entry): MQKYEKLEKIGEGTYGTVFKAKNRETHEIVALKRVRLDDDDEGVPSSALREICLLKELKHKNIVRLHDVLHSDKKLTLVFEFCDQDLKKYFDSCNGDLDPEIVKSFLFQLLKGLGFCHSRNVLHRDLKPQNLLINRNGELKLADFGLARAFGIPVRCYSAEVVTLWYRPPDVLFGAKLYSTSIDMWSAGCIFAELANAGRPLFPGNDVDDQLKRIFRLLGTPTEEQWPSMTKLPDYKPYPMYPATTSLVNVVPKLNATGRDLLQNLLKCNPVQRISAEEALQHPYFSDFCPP
Sequence of Cyclin-dependent kinase 5/CDK5 activator 1 (Homo sapiens) (Q15078 99-307 partner limits assumed): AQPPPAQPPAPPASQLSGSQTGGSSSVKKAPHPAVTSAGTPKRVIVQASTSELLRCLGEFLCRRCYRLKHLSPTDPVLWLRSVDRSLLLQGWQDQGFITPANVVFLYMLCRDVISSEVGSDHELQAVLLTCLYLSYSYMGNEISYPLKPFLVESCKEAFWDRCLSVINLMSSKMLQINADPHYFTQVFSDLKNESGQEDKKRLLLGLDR
Sequence of Dual specificity protein kinase CLK1 (P22518 whole entry, the tested form may be a part): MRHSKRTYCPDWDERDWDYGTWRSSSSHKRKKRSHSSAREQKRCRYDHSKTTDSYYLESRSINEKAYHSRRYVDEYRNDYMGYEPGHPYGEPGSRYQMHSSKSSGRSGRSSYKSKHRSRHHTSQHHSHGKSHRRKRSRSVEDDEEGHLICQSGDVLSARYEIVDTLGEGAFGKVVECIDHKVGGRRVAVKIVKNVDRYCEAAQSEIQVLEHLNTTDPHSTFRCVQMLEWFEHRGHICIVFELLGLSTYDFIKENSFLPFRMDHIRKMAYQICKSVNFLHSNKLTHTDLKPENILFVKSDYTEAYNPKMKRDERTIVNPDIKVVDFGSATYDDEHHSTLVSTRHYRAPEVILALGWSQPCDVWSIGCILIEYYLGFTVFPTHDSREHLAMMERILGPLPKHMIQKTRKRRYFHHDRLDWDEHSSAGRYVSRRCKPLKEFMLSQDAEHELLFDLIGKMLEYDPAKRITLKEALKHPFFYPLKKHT
Sequence of Dual specificity protein kinase CLK1 (Mus musculus) (P22518 whole entry, looked up, the tested form may be a part): as the sequence (P22518 whole entry, the tested form may be a part) above

| Compound | inhibition of growth at 100 µM (DU-145) [%] | inhibition of growth at 100 µM (MDA-MB-231 [1]) [%] | IC50 (BT-20 [2]) [µM] | inhibition of growth at 100 µM (MDA-MB-468 [3]) [%] | IC50 (ZR-75-1 [4]) [µM] | IC50 (PANC-1 [5]) [µM] | IC50 (ZR-75-30 [6]) [µM] | inhibition [7] [%] | IC50 [8] [µM] | IC50 (MDA-MB-231 [9]) [µM] | IC50 [10] [µM] | inhibition [11] [%] | IC50 (MIA PaCa-2 [12]) [µM] | inhibition [13] [%] | IC50 (HEK293) [µM] | inhibition [14] [%] | IC50 (HCT-15 [15]) [µM] | inhibition of growth at 100 µM (ZR-75-1 [16]) [%] | IC50 [17] [µM] | IC50 (MDA-MB-468 [18]) [µM] | further results |
| --- | --- | --- | --- | --- | --- | --- | --- | --- | --- | --- | --- | --- | --- | --- | --- | --- | --- | --- | --- | --- | --- |
| COc1cc2ncnc(Nc3cc(O)[nH]n3)c2cc1OC | > 50 | > 50 | > 100 | > 50 | > 100 | > 100 | > 100 | > 50 | > 10 | > 100 | < 10 | > 50 | > 100 | > 50 | 69.5 | > 50 | > 100 | > 50 | > 10 | 86.7 | IC50 (MCF7 [19]): > 100 µM; inhibition of growth at 100 µM (ZR-75-30 [20]): > 50%; inhibition of growth at 100 µM (MCF7 [21]): > 50%; inhibition of growth at 100 µM (MIA PaCa-2 [22]): > 50%; IC50 (A549 [23]): 74.9 µM; inhibition of growth at 100 µM (BT-20 [24]): > 50%; inhibition of growth at 100 µM (A549 [25]): > 50%; inhibition (Asteroidea): > 50%; inhibition (Sus scrofa): > 50%; inhibition [26]: > 50%; IC50 [27]: > 10 µM; inhibition of growth at 100 µM (PANC-1 [28]): > 50%; IC50 (CDK2/Cyclin A2): > 10 µM; inhibition of growth at 100 µM (HCT-15 [29]): > 50%; inhibition [30]: > 50%; inhibition at 100 µM [31]: > 50% |
| COc1cc2ncnc(Nc3cc(-c4ccc(F)cc4)[nH]n3)c2cc1OC | > 50 | > 50 | > 100 | > 50 | > 100 | 69.4 | > 100 | > 50 | > 10 | > 100 | 1.4 | > 50 | > 100 | > 50 | > 100 | > 50 | > 100 | > 50 | > 10 | > 100 | IC50 (MCF7 [19]): > 100 µM; inhibition of growth at 100 µM (ZR-75-30 [20]): > 50%; inhibition of growth at 100 µM (MCF7 [21]): > 50%; inhibition of growth at 100 µM (MIA PaCa-2 [22]): > 50%; IC50 (A549 [23]): > 100 µM; inhibition of growth at 100 µM (BT-20 [24]): > 50%; inhibition of growth at 100 µM (A549 [25]): > 50%; inhibition (Asteroidea): > 50%; inhibition (Sus scrofa): > 50%; inhibition [26]: > 50%; IC50 [27]: > 10 µM; inhibition of growth at 100 µM (PANC-1 [28]): > 50%; IC50 (CDK2/Cyclin A2): > 10 µM; inhibition of growth at 100 µM (HCT-15 [29]): > 50%; inhibition [30]: > 50%; inhibition at 100 µM [31]: > 50% |
| COc1ccc(-c2cc(Nc3ncnc4cc(OC)c(OC)cc34)n[nH]2)cc1 | > 50 | > 50 | > 100 | > 50 | > 100 | > 100 | < 100 | > 50 | > 10 | < 100 | < 10 | > 50 | < 100 | > 50 | > 100 | > 50 | < 100 | > 50 | > 10 | 45.3 | IC50 (MCF7 [19]): > 100 µM; inhibition of growth at 100 µM (ZR-75-30 [20]): > 50%; inhibition of growth at 100 µM (MCF7 [21]): > 50%; inhibition of growth at 100 µM (MIA PaCa-2 [22]): > 50%; IC50 (A549 [23]): > 100 µM; inhibition of growth at 100 µM (BT-20 [24]): > 50%; inhibition of growth at 100 µM (A549 [25]): > 50%; inhibition (Asteroidea): > 50%; inhibition (Sus scrofa): > 50%; inhibition [26]: > 50%; IC50 [27]: > 10 µM; inhibition of growth at 100 µM (PANC-1 [28]): > 50%; IC50 (CDK2/Cyclin A2): > 10 µM; inhibition of growth at 100 µM (HCT-15 [29]): > 50%; inhibition [30]: > 50%; inhibition at 100 µM [31]: > 50% |
| COc1cc2ncnc(Nc3cc(-c4ccc(Cl)cc4)[nH]n3)c2cc1OC | > 50 | > 50 | > 100 | > 50 | > 100 | > 100 | 91.5 | > 50 | > 10 | < 100 | < 10 | > 50 | < 100 | > 50 | 81.2 | > 50 | 98.2 | > 50 | > 10 | 79.5 | IC50 (MCF7 [19]): > 100 µM; inhibition of growth at 100 µM (ZR-75-30 [20]): > 50%; inhibition of growth at 100 µM (MCF7 [21]): > 50%; inhibition of growth at 100 µM (MIA PaCa-2 [22]): > 50%; IC50 (A549 [23]): > 100 µM; inhibition of growth at 100 µM (BT-20 [24]): > 50%; inhibition of growth at 100 µM (A549 [25]): > 50%; inhibition (Asteroidea): > 50%; inhibition (Sus scrofa): > 50%; inhibition [26]: > 50%; IC50 [27]: > 10 µM; inhibition of growth at 100 µM (PANC-1 [28]): > 50%; IC50 (CDK2/Cyclin A2): > 10 µM; inhibition of growth at 100 µM (HCT-15 [29]): > 50%; inhibition [30]: > 50%; inhibition at 100 µM [31]: > 50% |
